# From patent US7956047B2, “Use of chondroitin sulphate E (CS-E) for the treatment of diseases or conditions related to collagen fibril formation” (AnaMar AB, priority 2004, dated 2011)
# “Also recorded” adds a separate entry of the source.
# Experiments:
# [1] = tested on: collagen fibril formation (collagen monomers, collagen type I / collagen type II); assay: In vitro collagen fibrillogenesis assay (turbidity / light scattering); format: biochemical, bovine; conditions: for effect on collagen fibril formation (CFF): purified free CS chains added to collagen monomers (330 nM), pH 7.4, FIG. 2 panel A
# Description: Bovine pepsin-extracted collagen type I was purchased from Vitrogen. Collagen II was pepsin extracted from bovine tracheal cartilage, as previously described (Vogel, K. G., Paulsson, M., and Heinegård, D. (1984) Biochem. J. 223, 587-597). The fibrillogenesis assay has been previously described (Hedborn, E. and Heinegård, D. (1989) J. Biol. Chem. 264, 6898-6905).
# Briefly, a solution of collagen monomers (330 nM) was brought to neutral pH by addition of an appropriate volume of 0.012M NaOH, and buffered by 20 mM HEPES, 150 mM NaCl at pH 7.4. Perlecan fragment was added at concentrations equimolar to that of collagen or at one tenth the molar concentration of collagen. The sample was mixed vigorously and briefly, and transferred to a cuvette. The sample was incubated at 37° C. (collagen type I) or 35° C. (collagen type II) in water-jacketed cuvettes in the spectrophotometer, and the absorbance due to light scattering at 400 nm (collagen type I) or 313 nm (collagen type II) was monitored over a duration of 5-18 hrs. The increased absorbance/turbidity depends on increasing fibre formation.
# Fibrillogenesis was performed as described above. CS-E from squid was purchased from Calbiochem. 0.13 μg/ml corresponding to the molar concentration of GAG chains in previous experiments using recombinant perlecan domain I variants with HS/CS (PG IB) (33 nM).
# collagen monomers = conditions: literature / manuscript of the applicant's laboratory; cited from earlier work
Molecule,effect on collagen fibril formation (CFF) [1],effect on formation of collagen fibres from monomers in vitro (collagen monomers),concentration at which the stimulatory effect on fibril formation reaches saturation ([1]; FIG. 2 panel B),dose dependence of the stimulatory effect on collagen fibril formation ([1]; FIG. 2 panel B)
"chondroitin-6 sulphate [CS-6, reference compound]",none of the other CS variants had any significant effect; also recorded: none of the other tested chondroitin sulphate variants (CS-D and CS-6) gives a positive result; also recorded: neither CS-6 nor CS-D had any effect,,,
cartilage oligomeric matrix protein [COMP],,accelerates the formation of fibres from monomers,,
chondroitin sulphate E [CS-E],effective in collagen fibril formation; also recorded: positive result on collagen fibril formation; also recorded: dramatic effects on fibril formation,,30 µg/mL,dose-dependent
"decorin (protein, UniProt P07585 31-359, looked up) Decorin: DEASGIGPEVPDDRDFEPSLGPVCPFRCQCHLRVVQCSDLGLDKVPKDLPPDTTLLDLQNNKITEIKDGDFKNLKNLHALILVNNKISKVSPGAFTPLVKLERLYLSKNQLKELPEKMPKTLQELRAHENEITKVRKVTFNGLNQMIVIELGTNPLKSSGIENGAFQGMKKLSYIRIADTNITSIPQGLPPSLTELHLDGNKISRVDAASLKGLNNLAKLGLSFNSISAVDNGSLANTPHLRELHLDNNKLTRVPGGLAEHKYIQVVYLHNNNISVVGSSDFCPPGHNTKKASYSGVSLFSNPVQYWEIQPSTFRCVYVRSAIQLGNYK",,slow down fibre formation in vitro,,
"fibromodulin (protein, UniProt Q06828 19-376, looked up) Fibromodulin: QYEDDPHWWFHYLRSQQSTYYDPYDPYPYETYEPYPYGVDEGPAYTYGSPSPPDPRDCPQECDCPPNFPTAMYCDNRNLKYLPFVPSRMKYVYFQNNQITSIQEGVFDNATGLLWIALHGNQITSDKVGRKVFSKLRHLERLYLDHNNLTRMPGPLPRSLRELHLDHNQISRVPNNALEGLENLTALYLQHNEIQEVGSSMRGLRSLILLDLSYNHLRKVPDGLPSALEQLYMEHNNVYTVPDSYFRGAPKLLYVRLSHNSLTNNGLASNTFNSSSLLELDLSYNQLQKIPPVNTNLENLYLQGNRINEFSISSFCTVVDVVNFSKLQVLRLDGNEIKRSAMPADAPLCLRLASLIEI",,slow down fibre formation in vitro,,
